# Reference: patent US10428074B2, “Pyrrole heteroaryl ring derivative and method of use thereof” (Jiangsu Hengrui Medicine Co., Ltd., priority 2011, dated 2019)
# Columns and labels:
# [1] = system: human erythroid leukemia cell line TF-1; assay: Proliferation inhibition assay on TF-1 cells mediated by IL-4; format: cell-based; conditions: 10 ng/mL IL-4, 72 hours
# Source text: The following in vitro assay is to determine the activity of the compounds of the present invention for inhibiting the proliferation of human erythroid leukemia cell line TF-1.
# The activity is represented by the IC50 value, which can not only reflect the activity of a test compound for inhibiting JAK2 and JAK3 kinase, but can also reflect the selectivity of a test compound for JAK2 and JAK3 kinase.
# The general procedures of the assay are given as follows: first, the TF-1 cells (purchased from ATCC, Catalog number: CRL 2003) were seeded in a 96-well cell culture plate at a suitable cell concentration (8000 cells/mL medium), and 10 ng/mL IL-4 (Invitrogen, Catalog Number: PHC0044) were added to each well. Then 10× serial concentration gradient of test compounds solutions (10000, 1000, 100, 10, 1 and 0.1 nM) were prepared, and then the 10× compound solutions prepared above were added to the 96-well cell culture plate containing IL-4. After the cell plates were cultured continuously for 72 hours, the activity of the test compounds for inhibiting the cell proliferation was determined by using a Cell Counting Kit-8 (purchased from Dojindo, Catalog Number: CK04). IC50 values were calculated from the data of the inhibition rates at various concentrations of the test compounds.
# T cells = assay: Proliferation inhibition assay on T cells (PBMC, anti-CD3, IL-2); format: cell-based, human; conditions: Homo sapiens, T-cell, IL-2 10 ng/mL
# Source text: The following in vitro assay is to determine the activity of the compounds of the present invention for inhibiting the proliferation of T cells.
# The activity is represented by the IC50 value.
# The general procedures of the assay are given as follows: first, the PBMC cell line (purchased from Shanghai Blood Center) was centrifuged, the supernatant was removed, and the cells counted. […] Then, the cells were washed 3 times, resuspended, diluted to 2×10^6/mL, and then mixed with recombinant human IL-2 (purchased from Peprotech, Catalog Number: 200-02) to a concentration of 10 ng/mL, and cultured for another 3 days. The cells were washed again 3 times, and diluted to 5×10^5/mL. 80 μL of the cells were seeded in each well of a 96-well cell culture plate. […] To he control wells, 10 μL culture medium were added. The plate was placed in an incubator. After incubating for 1 hr, negative control wells were mixed with 10 μL of culture medium, and the rest of the wells were mixed with IL-2 to a concentration of 10 ng/mL, and incubated continuously for 72 hours. […] IC50 values were calculated from the data of inhibition rates at various concentrations of the test compounds.
# [2] = Pharmacokinetics assay in rats, intragastric administration; format: in vivo, Sprague-Dawley (SD) rats; conditions: SD rats, 10 mg/kg
# Description: Rats were used as test animals. […] The pharmacokinetic behavior of the compounds of the present invention was studied and evaluated in rats.
# 56 Healthy adult Sprague-Dawley (SD) rats, half male and half female, purchased from SINO-BRITSH SIPPR/BK LAB.
# The appropriate amount of test compounds were weighed and mixed with 1.0 mL of dimethyl sulfoxide to prepare a 1.0 mg/mL suspension.
# After an overnight fast, SD rats were administered intragastrically at a dose of 10.0 mg/kg and an administration volume of 10 mL/kg.
# The plasma samples were stored at −20° C. The rats were fed 2 hours after administration.
# Content determination of the test compounds in rat plasma after intragastrically administering at different concentrations: 50 μL of rat plasmas taken at various time points after administration were mixed with 50 μL of internal standard solution and 100 μL of methanol and mixed for 3 minutes by a vortexer. The mixture was centrifuged for 10 minutes at 13,500 rpm. 10 μL of the supernatant was taken from the plasma sample and analyzed by LC-MS/MS.
# JAK3 kinase = JAK3 kinase (Homo sapiens, UniProt P52333); assay: Assay for inhibiting JAK3 kinase (in vitro kinase assay); format: biochemical; conditions: 20 μM ATP; read-out: IC50 (JAK3/Bio)
# Description: In vitro activity of compounds of the present invention for inhibiting JAK3 kinase was determined by the following method.
# JAK1 kinase = JAK1 kinase (Homo sapiens, UniProt P23458); assay: Assay for inhibiting JAK1 kinase (in vitro kinase assay); format: biochemical; conditions: 20 μM ATP; read-out: IC50 (JAK1/Bio)
# Description: In vitro activity of compounds of the present invention for inhibiting JAK1 kinase was determined by the following method.
# IC50 values of test compounds was calculated from the data of the test compounds in inhibiting the activity of JAK1 kinase at different concentrations.
# JAK2 kinase = JAK2 kinase (Homo sapiens, UniProt O60674); assay: Assay for inhibiting JAK2 kinase (in vitro kinase assay); format: biochemical; conditions: 20 μM ATP; read-out: IC50 (JAK2/Bio)
# Description: In vitro activity of compounds of the present invention for inhibiting JAK2 kinase was determined by the following method.
# JAK2 kinase, sequence (O60674 whole entry, looked up): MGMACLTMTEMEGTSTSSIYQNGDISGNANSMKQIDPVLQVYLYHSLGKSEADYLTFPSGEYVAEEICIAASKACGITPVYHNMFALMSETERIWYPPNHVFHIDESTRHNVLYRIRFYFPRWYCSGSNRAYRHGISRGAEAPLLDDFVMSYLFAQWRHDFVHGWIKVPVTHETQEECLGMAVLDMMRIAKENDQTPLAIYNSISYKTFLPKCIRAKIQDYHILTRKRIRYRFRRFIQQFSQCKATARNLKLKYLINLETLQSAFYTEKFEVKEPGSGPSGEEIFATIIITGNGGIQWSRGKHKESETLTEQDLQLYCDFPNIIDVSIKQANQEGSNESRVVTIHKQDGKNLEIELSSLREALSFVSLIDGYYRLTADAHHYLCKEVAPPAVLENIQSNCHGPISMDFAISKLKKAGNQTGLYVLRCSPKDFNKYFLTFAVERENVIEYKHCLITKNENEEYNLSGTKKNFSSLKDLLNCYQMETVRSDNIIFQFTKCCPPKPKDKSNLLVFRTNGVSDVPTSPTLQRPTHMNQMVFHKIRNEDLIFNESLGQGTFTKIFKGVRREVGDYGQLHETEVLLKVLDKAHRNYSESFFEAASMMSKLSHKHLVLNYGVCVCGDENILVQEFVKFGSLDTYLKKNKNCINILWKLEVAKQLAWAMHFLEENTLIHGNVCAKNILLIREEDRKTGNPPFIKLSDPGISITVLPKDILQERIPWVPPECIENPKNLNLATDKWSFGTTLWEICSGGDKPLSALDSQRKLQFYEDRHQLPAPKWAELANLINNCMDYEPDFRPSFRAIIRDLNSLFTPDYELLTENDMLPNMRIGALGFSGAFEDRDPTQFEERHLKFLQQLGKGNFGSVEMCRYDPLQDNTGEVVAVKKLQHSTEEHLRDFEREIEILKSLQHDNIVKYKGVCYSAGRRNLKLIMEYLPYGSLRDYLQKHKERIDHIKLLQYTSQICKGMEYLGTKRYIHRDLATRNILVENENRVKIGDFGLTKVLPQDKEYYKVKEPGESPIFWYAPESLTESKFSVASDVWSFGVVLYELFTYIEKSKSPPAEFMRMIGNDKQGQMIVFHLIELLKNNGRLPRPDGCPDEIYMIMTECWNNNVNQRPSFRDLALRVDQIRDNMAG
# JAK3 kinase, sequence (P52333 whole entry, looked up): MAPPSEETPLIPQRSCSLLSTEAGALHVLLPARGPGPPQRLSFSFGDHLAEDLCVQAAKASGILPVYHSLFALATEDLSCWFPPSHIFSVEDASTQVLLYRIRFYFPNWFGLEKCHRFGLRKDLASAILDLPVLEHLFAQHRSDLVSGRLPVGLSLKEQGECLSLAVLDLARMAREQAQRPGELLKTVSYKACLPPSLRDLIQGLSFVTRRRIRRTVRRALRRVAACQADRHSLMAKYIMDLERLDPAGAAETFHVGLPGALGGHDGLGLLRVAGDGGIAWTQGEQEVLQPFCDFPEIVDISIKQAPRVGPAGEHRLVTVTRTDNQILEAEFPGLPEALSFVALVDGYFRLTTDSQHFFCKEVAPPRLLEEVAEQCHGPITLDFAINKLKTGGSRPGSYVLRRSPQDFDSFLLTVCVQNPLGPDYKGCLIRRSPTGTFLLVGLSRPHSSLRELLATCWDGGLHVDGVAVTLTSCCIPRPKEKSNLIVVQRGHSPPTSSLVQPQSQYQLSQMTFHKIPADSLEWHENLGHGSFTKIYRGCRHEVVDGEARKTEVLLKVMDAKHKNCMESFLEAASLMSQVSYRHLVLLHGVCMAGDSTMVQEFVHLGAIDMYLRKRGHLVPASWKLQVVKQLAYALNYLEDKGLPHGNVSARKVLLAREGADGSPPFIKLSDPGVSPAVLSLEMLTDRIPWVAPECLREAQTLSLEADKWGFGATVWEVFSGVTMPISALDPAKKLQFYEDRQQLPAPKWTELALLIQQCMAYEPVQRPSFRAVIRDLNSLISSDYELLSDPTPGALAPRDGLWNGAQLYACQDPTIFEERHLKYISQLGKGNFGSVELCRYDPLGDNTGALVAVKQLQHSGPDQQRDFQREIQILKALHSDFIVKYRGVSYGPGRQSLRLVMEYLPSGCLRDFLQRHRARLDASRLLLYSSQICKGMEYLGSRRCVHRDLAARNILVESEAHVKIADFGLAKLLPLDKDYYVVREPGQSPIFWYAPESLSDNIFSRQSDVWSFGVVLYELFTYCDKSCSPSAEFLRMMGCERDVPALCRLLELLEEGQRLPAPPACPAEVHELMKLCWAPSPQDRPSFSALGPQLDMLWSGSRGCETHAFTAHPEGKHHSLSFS
Compound,IC50 [1] [nM],IC50 (T cells; 72 h) [nM],IC50 (T cells; 72 hours) [nM],other results
"C[C@H](O)C(=O)N1C[C@H]2C[C@H](N(C)c3ncnc4[nH]ccc34)C[C@H]2C1 [Example 17, (S)-2-Hydroxy-1-((3aR,5R,6aS)-5-(methyl(7H-pyrrolo[2,3-d]pyrimidin-4-yl)amino)hexahydrocyclopenta[c]pyrrol-2(1H)-yl)propan-1-one]",165,29,–,Half-Life t½ [2]: 2.03 ± 0.82 h
"C[C@@H](O)C(=O)N1C[C@H]2C[C@H](N(C)c3ncnc4[nH]ccc34)C[C@H]2C1 [Example 19, (R)-2-Hydroxy-1-((3aR,5S,6aS)-5-(methyl(7H-pyrrolo[2,3-d]pyrimidin-4-yl)amino)hexahydrocyclopenta[c]pyrrol-2(1H)-yl)propan-1-one]",711,724,–,–
"COc1nsc(NC(=O)N2C[C@H]3C[C@H](N(C)c4ncnc5[nH]ccc45)C[C@H]3C2)n1 [Example 34, (3aR,5S,6aS)—N-(3-Methoxy-1,2,4-thiadiazol-5-yl)-5-(methyl(7H-pyrrolo[2,3-d]pyrimidin-4-yl)amino)hexahydrocyclopenta[c]pyrrole-2(1H)-carboxamide]",44,54,–,Half-Life t½ [2]: 2.10 ± 0.73 h
"CN(c1ncnc2[nH]ccc12)C1C[C@@H]2CCN(C(=O)CO)C[C@@H]2C1 (stereo partly drawn) [Example 37, 2-Hydroxy-1-((4aS,7aR)-6-(methyl(7H-pyrrolo[2,3-d]pyrimidin-4-yl)amino)hexahydro-1H-cyclopenta[c]pyridin-2(3H,4H,4aH,5H,6H,7H,7aH)-yl)ethanone]",123,–,453,–
"COc1nsc(NC(=O)N2CC[C@H]3CC(N(C)c4ncnc5[nH]ccc45)C[C@H]3C2)n1 (stereo partly drawn) [Example 38, (4aS,7aR)—N-(3-Methoxy-1,2,4-thiadiazol-5-yl)-6-(methyl(7H-pyrrolo[2,3-d]pyrimidin-4-yl)amino)hexahydro-1H-cyclopenta[c]pyridine-2(3H)-carboxamide]",160,–,71,–
"CCc1nsc(NC(=O)N2C[C@H]3C[C@H](N(C)c4ncnc5[nH]ccc45)C[C@H]3C2)n1 [Example 48, (3aR,5S,6aS)—N-(3-Ethyl-1,2,4-thiadiazol-5-yl)-5-(methyl(7H-pyrrolo[2,3-d]pyrimidin-4-yl)amino)hexahydrocyclopenta[c]pyrrole-2(1H)-carboxamide]",27,23,–,Half-Life t½ [2]: 2.43 ± 0.75 h
"CN(c1ncnc2[nH]ccc12)[C@@H]1C[C@@H]2CN(C(=O)Nc3nncs3)C[C@@H]2C1 [Example 73, (3aR,5R,6aS)-5-(methyl(7H-pyrrolo[2,3-d]pyrimidin-4-yl)amino)-N-(1,3,4-thiadiazol-2-yl)hexahydrocyclopenta[c] pyrrole-2(1H)-carboxamide]",476,–,518,–
"COc1nsc(NC(=O)N2C[C@H]3C[C@@H](N(C)c4ncnc5[nH]ccc45)C[C@H]3C2)n1 [Example 74, (3aR,5R,6aS)-N-(3-methoxy-1,2,4-thiadiazol-5-yl)-5-(methyl(7H-pyrrolo[2,3-d]pyrimidin-4-yl)amino)hexahydrocyclopenta [c]pyrrole-2(1H)-carboxamide]",546,68,–,–
"CN(c1ncnc2[nH]ccc12)[C@H]1C[C@@H]2CN(C(=O)Nc3nncs3)C[C@@H]2C1 [Example 86, (3aR,5S,6aS)-5-(methyl(7H-pyrrolo[2,3-d]pyrimidin-4-yl)amino)-N-(1,3,4-thiadiazol-2-yl)hexahydrocyclopenta[c] pyrrole-2(1H)-carboxamide]",691,–,130,–
CN(c1ncnc2[nH]ccc12)[C@H]1C[C@@H]2CN(C(=O)Nc3nc(OCC(C)(C)O)ns3)C[C@@H]2C1 [Example 99],–,54,–,"IC50 (JAK3 kinase): 110 nM; IC50 ([1]; TF-1, 72 h): 44 nM; IC50 (JAK1 kinase): 0.3 nM; IC50 (JAK2 kinase): 5 nM"
"CN(c1ccnc2[nH]ccc12)[C@H]1C[C@@H]2CN(C(=O)CO)C[C@@H]2C1 [Example 112, 2-hydroxy-1-((3aR,5S,6aS)-5-(methyl(1H-pyrrolo[2,3-b]pyridin-4-yl)amino)hexahydrocyclopenta[c]pyrrol-2(1H)-yl) ethanone]",–,–,–,IC50 (JAK1 kinase): 96 nM
"CN(c1ncnc2[nH]cc(F)c12)[C@H]1C[C@@H]2CN(C(=O)CO)C[C@@H]2C1 [Example 128, 1-((3aR,5S,6aS)-5-((5-fluoro-7H-pyrrolo[2,3-d]pyrimidin-4-yl) (methyl)amino)hexahydrocyclopenta[c]pyrrol-2(1H)-yl)-2-hydroxyethanone]",–,167,–,"IC50 ([1]; TF-1, 72 h): 252 nM"
